Structures are written as SMILES.

From patent US20240254118A1, “PRMT5 INHIBITORS AND USES THEREOF” (Gilead Sciences, Inc., priority 2022, published 2024) come the findings set out here.

In assay [1] the test system is SDMA signal (PRMT5 inhibition) in HCT116 MTAP-deleted cells. The assay can be described thus: Symmetric di-methyl arginine image-based high content screen assay (SDMA assay), HCT116 MTAP-deleted. The assay is classed as cell-based. To be noted: SDMA assay; for EC50: Homo sapiens, HCT-116, 72 h, 3 days of treatment, cell line not given, taken as HCT116 MTAP-deleted, read-out: EC50 (SDMA assay); for EC50 selectivity (SDMA assay): taken as HCT116 WT versus MTAP-deleted. In outline: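 HCT116 MTAP-deleted cells treated with compound until Day 3, then formalin-fixed, permeabilized and immunostained for SDMA, with DAPI nuclear counterstain. Imaged by high-content microscopy; SDMA read-out is mean Alexa 488 intensity per DAPI-defined cell, reflecting PRMT5 inhibition.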

Assay [2] concerns HCT116 MTAP-deleted cells. Kind of assay: Cell viability assay (CellTiter-Glo, 7 days), HCT116 MTAP-deleted. Conditions: Homo sapiens, HCT-116, 168 h. For orientation: In ATP-based viability assays light output follows the ATP content of the culture.

As for `Cn1ncc2c(N)nc3cc(F)c(C(=O)N(Cc4ccc(C(F)(F)F)cn4)N4CCOC4=O)cc3c21` [Example 145, 4-amino-7-fluoro-1-methyl-N-(2-oxooxazolidin-3-yl)-N-[[5-(trifluoromethyl)-2-pyridyl]methyl]pyrazolo[4,3-c]quinoline-8-carboxamide], in assay [1], the 50% effective concentration (EC50) is < 1 nM and the “EC50 selectivity (SDMA assay)” value is 45. In assay [2], the CC50 is < 100 nM.

With `CN(C(=O)C1CC1)N(Cc1ccc(C(F)(F)F)cn1)C(=O)c1cc2c(cc1F)nc(N)c1cnn(C)c12` [Example 146, 4-amino-N′-(cyclopropanecarbonyl)-7-fluoro-N′,1-dimethyl-N-[[5-(trifluoromethyl)-2-pyridyl]methyl]pyrazolo[4,3-c]quinoline-8-carbohydrazide], in assay [1], the EC50 is < 1 nM and the “EC50 selectivity (SDMA assay)” value is recorded as 16. The CC50 in assay [2] is < 100 nM.

With `CC(=O)N(c1ccccn1)N(Cc1ccc(C(F)(F)F)cn1)C(=O)c1ccc2nc(N)c3cnn(C)c3c2c1` [Example 147, N′-acetyl-4-amino-1-methyl-N′-(2-pyridyl)-N-[[5-(trifluoromethyl)-2-pyridyl]methyl]pyrazolo[4,3-c]quinoline-8-carbohydrazide], in assay [1], the EC50 is < 1 nM and the “EC50 selectivity (SDMA assay)” value is 16. Also, the CC50 in assay [2] was < 100 nM.

For `Cn1ncc2c(N)nc3cc(Cl)c(C(=O)N(Cc4ccc(C(F)(F)F)cn4)N4CCCCC4=O)cc3c21` [Example 148, 4-amino-7-chloro-1-methyl-N-(2-oxopiperidin-1-yl)-N-((5-(trifluoromethyl)pyridin-2-yl)methyl)-1H-pyrazolo[4,3-c]quinoline-8-carboxamide], in assay [1], the EC50 was 1 to 5 nM and the “EC50 selectivity (SDMA assay)” value is recorded as 66. In addition, the CC50 in assay [2] is < 100 nM.

On to `Cn1ncc2c(N)nc3cc(F)c(C(=O)N(Cc4ccc(C(F)(F)F)cn4)N4CCCCC4=O)cc3c21` [Example 149, 4-amino-7-fluoro-1-methyl-N-(2-oxopiperidin-1-yl)-N-((5-(trifluoromethyl)pyridin-2-yl)methyl)-1H-pyrazolo[4,3-c]quinoline-8-carboxamide], for which, in assay [1], the half-maximal effective concentration (EC50) is 1 to 5 nM and the “EC50 selectivity (SDMA assay)” value worked out at 18. In addition, the cytotoxic concentration (CC50) in assay [2] was < 100 nM.

For the compound `Cn1ncc2c3cc(C(=O)N(Cc4ccc(C(F)(F)F)cn4)N4CCOC4=O)ccc3nc(N)c21` [Example 150, 4-amino-3-methyl-N-(2-oxooxazolidin-3-yl)-N-((5-(trifluoromethyl)pyridin-2-yl)methyl)-3H-pyrazolo[3,4-c]quinoline-8-carboxamide], in assay [1], the half-maximal effective concentration (EC50) lay within 1 to 5 nM and the “EC50 selectivity (SDMA assay)” value is 138. Moreover, the CC50 in assay [2] was < 100 nM.

`Cn1ncc2c3cc(C(=O)N(Cc4ccc(C(F)(F)F)cn4)N4CCCC4=O)ccc3nc(N)c21` [Example 151, 4-amino-3-methyl-N-(2-oxopyrrolidin-1-yl)-N-((5-(trifluoromethyl)pyridin-2-yl)methyl)-3H-pyrazolo[3,4-c]quinoline-8-carboxamide]: in assay [1], the EC50 is < 1 nM and the “EC50 selectivity (SDMA assay)” value is on record as 525. Besides, the CC50 in assay [2] was < 100 nM.

`CC(=O)N(C)N(Cc1ccc(C(F)(F)F)cn1)C(=O)c1ccc2nc(N)c3c(cnn3C)c2c1` [Example 152, N′-acetyl-4-amino-N′,3-dimethyl-N-((5-(trifluoromethyl)pyridin-2-yl)methyl)-3H-pyrazolo[3,4-c]quinoline-8-carbohydrazide]: in assay [1], the EC50 lay in the range of 1 to 5 nM and the “EC50 selectivity (SDMA assay)” value is reported as 128. This compound also returned a CC50 in assay [2] of 100 to 1000 nM.

Turning to `CC(=O)N(C)N(Cc1ccc(C(F)(F)F)cc1F)C(=O)c1ccc2nc(N)c3c(cnn3C)c2c1` [Example 153, N′-acetyl-4-amino-N-(2-fluoro-4-(trifluoromethyl)benzyl)-N′,3-dimethyl-3H-pyrazolo[3,4-c]quinoline-8-carbohydrazide], in assay [1], the EC50 fell in the range of 1 to 5 nM and the “EC50 selectivity (SDMA assay)” value is listed as 54. For the same compound, the CC50 in assay [2] is < 100 nM.

In the case of `CCN(C(C)=O)N(Cc1ccc(OC(F)F)cc1F)C(=O)c1cc2c(cc1F)nc(N)c1cnn(C)c12` [Example 154, N′-acetyl-4-amino-N-(4-(difluoromethoxy)-2-fluorobenzyl)-N′-ethyl-7-fluoro-1-methyl-1H-pyrazolo[4,3-c]quinoline-8-carbohydrazide], in assay [1], the half-maximal effective concentration (EC50) was < 1 nM and the “EC50 selectivity (SDMA assay)” value amounted to 45. Besides, in assay [2], the cytotoxic concentration (CC50) is < 100 nM.

For the compound `CN(C(=O)C1CC1)N(Cc1ccc(Cl)cc1F)C(=O)c1ccc2nc(N)c3cnn(C)c3c2c1` [Example 155, 4-amino-N-(4-chloro-2-fluorobenzyl)-N′-(cyclopropanecarbonyl)-N′,1-dimethyl-1H-pyrazolo[4,3-c]quinoline-8-carbohydrazide], in assay [1], the EC50 was < 1 nM and the “EC50 selectivity (SDMA assay)” value turned out to be 94. Moreover, the 50% cytotoxic concentration (CC50) in assay [2] is < 100 nM.

In the case of `CN(C(=O)N1CC(F)C1)N(Cc1ccc(C(F)(F)F)cn1)C(=O)c1ccc2nc(N)c3cnn(C)c3c2c1` [Example 156, 4-amino-N′-(3-fluoroazetidine-1-carbonyl)-N′,1-dimethyl-N-((5-(trifluoromethyl)pyridin-2-yl)methyl)-1H-pyrazolo[4,3-c]quinoline-8-carbohydrazide], in assay [1], the EC50 was < 1 nM and the “EC50 selectivity (SDMA assay)” value is on record as 34. In assay [2], the CC50 was < 100 nM.

Regarding `CN(C(=O)N1CC(F)(F)C1)N(Cc1ccc(C(F)(F)F)cn1)C(=O)c1ccc2nc(N)c3cnn(C)c3c2c1` [Example 157, 4-amino-N′-(3,3-difluoroazetidine-1-carbonyl)-N′,1-dimethyl-N-((5-(trifluoromethyl)pyridin-2-yl)methyl)-1H-pyrazolo[4,3-c]quinoline-8-carbohydrazide], in assay [1], the EC50 was < 1 nM and the “EC50 selectivity (SDMA assay)” value worked out at 54. Also, in assay [2], the cytotoxic concentration (CC50) was < 100 nM.

As to `CN(C(=O)c1nccn1C)N(Cc1ccc(C(F)(F)F)cn1)C(=O)c1ccc2nc(N)c3cnn(C)c3c2c1` [Example 158, 4-amino-N′,1-dimethyl-N′-(1-methyl-1H-imidazole-2-carbonyl)-N-((5-(trifluoromethyl)pyridin-2-yl)methyl)-1H-pyrazolo[4,3-c]quinoline-8-carbohydrazide], in assay [1], the EC50 is < 1 nM and the “EC50 selectivity (SDMA assay)” value was 4. For the same compound, in assay [2], the cytotoxic concentration (CC50) is < 100 nM.

On to `Cn1ncc2c(N)nc3ccc(C(=O)N(Cc4ccc(C(F)(F)F)cn4)N4CCC5(CC5)C4=O)cc3c21` [Example 159, 4-amino-1-methyl-N-(4-oxo-5-azaspiro[2.4]heptan-5-yl)-N-((5-(trifluoromethyl)pyridin-2-yl)methyl)-1H-pyrazolo[4,3-c]quinoline-8-carboxamide], for which, in assay [1], the half-maximal effective concentration (EC50) was < 1 nM and the “EC50 selectivity (SDMA assay)” value is on record as 69. The CC50 in assay [2] was < 100 nM.

As to `CNC(=O)c1ccc(-c2ccc(CN(C(=O)c3ccc4nc(N)c5cnn(C)c5c4c3)N3CCCCC3=O)nc2)cn1` [Example 160, 4-amino-1-methyl-N-((6′-(methylcarbamoyl)-[3,3′-bipyridin]-6-yl)methyl)-N-(2-oxopiperidin-1-yl)-1H-pyrazolo[4,3-c]quinoline-8-carboxamide], in assay [1], the EC50 fell in the range of 1 to 5 nM and the “EC50 selectivity (SDMA assay)” value is 10. For the same compound, the cytotoxic concentration (CC50) in assay [2] is < 100 nM.

On to `Cn1ncc2c(N)nc3ccc(C(=O)N(Cc4ccc(-c5cnn(C(F)(F)F)c5)cn4)N4CCCCC4=O)cc3c21` [Example 161, 4-amino-1-methyl-N-(2-oxopiperidin-1-yl)-N-((5-(1-(trifluoromethyl)-1H-pyrazol-4-yl)pyridin-2-yl)methyl)-1H-pyrazolo[4,3-c]quinoline-8-carboxamide], for which, in assay [1], the EC50 fell in the range of 1 to 5 nM and the “EC50 selectivity (SDMA assay)” value was found to be 51. The CC50 in assay [2] was < 100 nM.

Regarding `CN(C(=O)C1CCC1)N(Cc1ccc(C(F)(F)F)nn1)C(=O)c1cc2c(cc1F)nc(N)c1cnn(C)c12` [Example 162, 4-amino-N′-(cyclobutanecarbonyl)-7-fluoro-N′,1-dimethyl-N-((6-(trifluoromethyl)pyridazin-3-yl)methyl)-1H-pyrazolo[4,3-c]quinoline-8-carbohydrazide], in assay [1], the concentration giving a half-maximal response (EC50) was < 1 nM and the “EC50 selectivity (SDMA assay)” value worked out at 127. Further, in assay [2], the CC50 was < 100 nM.

On to `CN(C(=O)c1ncccn1)N(Cc1ccc(C(F)(F)F)cn1)C(=O)c1ccc2nc(N)c3cnn(C)c3c2c1` [Example 163, 4-amino-N′,1-dimethyl-N′-(pyrimidine-2-carbonyl)-N-((5-(trifluoromethyl)pyridin-2-yl)methyl)-1H-pyrazolo[4,3-c]quinoline-8-carbohydrazide], for which, in assay [1], the EC50 fell in the range of 1 to 5 nM and the “EC50 selectivity (SDMA assay)” value was 145. Further, the CC50 in assay [2] was < 100 nM.

In the case of `CC(=O)N(C)N(Cc1ccc2c(cnn2C)c1)C(=O)c1ccc2nc(N)c3cnn(C)c3c2c1` [Example 164, N′-acetyl-4-amino-N′,1-dimethyl-N-((1-methyl-1H-indazol-5-yl)methyl)-1H-pyrazolo[4,3-c]quinoline-8-carbohydrazide], in assay [1], the EC50 was in the range of 1 to 5 nM and the “EC50 selectivity (SDMA assay)” value turned out to be 163. In assay [2], the half-maximal cytotoxic concentration (CC50) was < 100 nM.

Consider `CN(C(=O)c1ncco1)N(Cc1ccc(C(F)(F)F)cc1F)C(=O)c1ccc2nc(N)c3cnn(C)c3c2c1` [Example 165, N′-(4-amino-1-methyl-1H-pyrazolo[4,3-c]quinoline-8-carbonyl)-N′-(2-fluoro-4-(trifluoromethyl)benzyl)-N-methyloxazole-2-carbohydrazide], for which, in assay [1], the concentration giving a half-maximal response (EC50) is < 1 nM and the “EC50 selectivity (SDMA assay)” value is listed as 11. The CC50 in assay [2] was < 100 nM.

The EC50 is the concentration needed to bring the measured effect to its halfway point. Broadly, the CC50 is the concentration at which the toxic effect on the cells reaches its halfway point. A lower CC50 goes with harm at low concentration.
